Measured values reported in patent publication US20250295646A1, “METHODS OF USE OF T-TYPE CALCIUM CHANNEL MODULATORS” (Praxis Precision Medicines, Inc., priority 2022, published 2025).

Tested on: adult patients with essential tremor
Assay: Example 16: video-reviewed TETRAS performance subscale and upper limb score; as to TETRAS Performance Subscale Total Score by Video Review, Change from Baseline, Mean (SD): test concentration or dose not given here; as to TETRAS Performance Subscale Total Score by Video Review, Change from Baseline, Median: test concentration or dose not given here; as to TETRAS Performance Subscale Total Score by Video Review, Mean (SD): test concentration or dose not given here; as to TETRAS Performance Subscale Total Score by Video Review, Median: test concentration or dose not given here
Assay type: in vivo, human
From the text: Video-reviewed TETRAS Analyses Video reviewed TETRAS assessments were generally consistent with those conducted at the clinic. Video reviewed TETRAS performance subscale total scores are summarized for Part A, the open-label titration phase of Part B, and the randomized withdrawal phase of Part B in Table 42, Table 43, and Table 44.
Video reviewed upper limb score values were generally consistent with those conducted at the clinic and are summarized for Part A, the open-label titration phase of Part B, and the randomized withdrawal phase of Part B in Table 45, Table 46, and Table 47, respectively.

[1] = Day 21, Part B Open-Label Titration Phase (N = 17)
[2] = Day 21, Part B, Formula (I) arm (N = 6)
[3] = Day 42 6 hours Post - dose (Randomization Baseline), Part B, Formula (I) arm (N = 6)
[4] = Day 42, 6 hours Post - dose, Part B Open-Label Titration Phase (N = 17)
[5] = Day 42, 6 hours Post - dose, Part B, Formula (I) arm (N = 6)
[6] = Day 42, Pre - dose, Part B Open-Label Titration Phase (N = 17)

CC(C)(C)NC(=O)CN1CCC(CNC(=O)c2cc(F)cc(Cl)c2)CC1 [compound of formula (I), N-((1-(2-(tert-butylamino)-2-oxoethyl)piperidin-4-yl)methyl)-3-chloro-5-fluorobenzamide]
TETRAS Upper Limb Score by Video Review, Mean (SD) [1]: 9.63 (2.478)
TETRAS Upper Limb Score by Video Review, Median [1]: 10.00
TETRAS Upper Limb Score by Video Review, Percentage Change from Baseline in Tremor Amplitude, Mean (SD) [1]: −9.74 (24.458) %
TETRAS Upper Limb Score by Video Review, Percentage Change from Baseline in Tremor Amplitude, Median [1]: −9.15%
TETRAS Performance Subscale Total Score by Video Review, Change from Baseline, Mean (SD) [2]: 0.08 (2.396)
TETRAS Performance Subscale Total Score by Video Review, Change from Baseline, Median [2]: 0.50
TETRAS Performance Subscale Total Score by Video Review, Mean (SD) [2]: 22.42 (3.277)
TETRAS Performance Subscale Total Score by Video Review, Median [2]: 22.00
TETRAS Performance Subscale Total Score by Video Review, Percentage Change from Baseline in Tremor Amplitude, Mean (SD) [2]: 0.67 (15.665) %
TETRAS Performance Subscale Total Score by Video Review, Percentage Change from Baseline in Tremor Amplitude, Median [2]: 3.53%
TETRAS Upper Limb Score by Video Review, Change from Baseline, Mean (SD) [2]: 0.17 (1.211)
TETRAS Upper Limb Score by Video Review, Change from Baseline, Median [2]: 0.00
TETRAS Upper Limb Score by Video Review, Mean (SD) [2]: 10.08 (0.861)
TETRAS Upper Limb Score by Video Review, Median [2]: 10.00
TETRAS Upper Limb Score by Video Review, Percentage Change from Baseline in Tremor Amplitude, Mean (SD) [2]: 2.64 (20.424) %
TETRAS Upper Limb Score by Video Review, Percentage Change from Baseline in Tremor Amplitude, Median [2]: 0.00%
TETRAS Performance Subscale Total Score by Video Review, Mean (SD) [3]: 19.92 (5.229)
TETRAS Performance Subscale Total Score by Video Review, Median [3]: 20.25
TETRAS Upper Limb Score by Video Review, Mean (SD) [3]: 8.42 (2.417)
TETRAS Upper Limb Score by Video Review, Median [3]: 9.25
TETRAS Performance Subscale Total Score by Video Review, Change from Baseline, Mean (SD) [4]: −3.18 (3.133)
TETRAS Performance Subscale Total Score by Video Review, Change from Baseline, Median [4]: −3.50
TETRAS Performance Subscale Total Score by Video Review, Mean (SD) [4]: 20.32 (7.564)
TETRAS Performance Subscale Total Score by Video Review, Median [4]: 20.00
TETRAS Performance Subscale Total Score by Video Review, Percentage Change from Baseline in Tremor Amplitude, Mean (SD) [4]: −18.90 (18.026) %
TETRAS Performance Subscale Total Score by Video Review, Percentage Change from Baseline in Tremor Amplitude, Median [4]: −22.26%
TETRAS Upper Limb Score by Video Review, Change from Baseline, Mean (SD) [4]: −1.77 (1.633)
TETRAS Upper Limb Score by Video Review, Change from Baseline, Median [4]: −1.50
TETRAS Upper Limb Score by Video Review, Mean (SD) [4]: 8.95 (2.902)
TETRAS Upper Limb Score by Video Review, Median [4]: 9.00
TETRAS Upper Limb Score by Video Review, Percentage Change from Baseline in Tremor Amplitude, Mean (SD) [4]: −26.26 (22.691) %
TETRAS Upper Limb Score by Video Review, Percentage Change from Baseline in Tremor Amplitude, Median [4]: −25.01%
TETRAS Performance Subscale Total Score by Video Review, Change from Baseline, Mean (SD) [5]: −2.42 (3.484)
TETRAS Performance Subscale Total Score by Video Review, Change from Baseline, Median [5]: −3.00
TETRAS Performance Subscale Total Score by Video Review, Percentage Change from Baseline in Tremor Amplitude, Mean (SD) [5]: −14.27 (20.962) %
TETRAS Performance Subscale Total Score by Video Review, Percentage Change from Baseline in Tremor Amplitude, Median [5]: −19.21%
TETRAS Upper Limb Score by Video Review, Change from Baseline, Mean (SD) [5]: −1.50 (2.025)
TETRAS Upper Limb Score by Video Review, Change from Baseline, Median [5]: −1.25
TETRAS Upper Limb Score by Video Review, Percentage Change from Baseline in Tremor Amplitude, Mean (SD) [5]: −21.52 (28.723) %
TETRAS Upper Limb Score by Video Review, Percentage Change from Baseline in Tremor Amplitude, Median [5]: −21.24%
TETRAS Performance Subscale Total Score by Video Review, Change from Baseline, Mean (SD) [6]: −2.32 (2.272)
TETRAS Performance Subscale Total Score by Video Review, Change from Baseline, Median [6]: −2.50
TETRAS Performance Subscale Total Score by Video Review, Mean (SD) [6]: 21.18 (7.916)
TETRAS Performance Subscale Total Score by Video Review, Median [6]: 19.50
TETRAS Performance Subscale Total Score by Video Review, Percentage Change from Baseline in Tremor Amplitude, Mean (SD) [6]: −14.41 (13.541) %
TETRAS Performance Subscale Total Score by Video Review, Percentage Change from Baseline in Tremor Amplitude, Median [6]: −16.46%
TETRAS Upper Limb Score by Video Review, Change from Baseline, Mean (SD) [6]: −1.41 (1.429)
TETRAS Upper Limb Score by Video Review, Change from Baseline, Median [6]: −1.00
TETRAS Upper Limb Score by Video Review, Mean (SD) [6]: 9.32 (2.943)
TETRAS Upper Limb Score by Video Review, Median [6]: 9.50
TETRAS Upper Limb Score by Video Review, Percentage Change from Baseline in Tremor Amplitude, Mean (SD) [6]: −21.20 (19.707) %
TETRAS Upper Limb Score by Video Review, Percentage Change from Baseline in Tremor Amplitude, Median [6]: −17.46%
